Measured values published in ChEMBL document CHEMBL1157371, “Prevalence, characteristics, and molecular epidemiology of macrolide and fluoroquinolone resistance in clinical isolates of Streptococcus pneumoniae at five tertiary-care hospitals in Korea” (2007).
Values after ≈ are worked out from the molar mass of the structure shown.

Key:
Assay type in all cases: functional
[1] = tested on: Streptococcus pneumoniae; assay: Antibacterial activity against erythromycin-resistant Streptococcus pneumoniae isolates by broth microdilution method
[2] = tested on: Streptococcus pneumoniae; assay: Antibacterial activity against erythromycin-resistant Streptococcus pneumoniae isolates assessed as percent susceptible isolates by broth microdilution method
[3] = tested on: Streptococcus pneumoniae; assay: Antibacterial activity against erythromycin-resistant Streptococcus pneumoniae isolates assessed as percent resistant isolates by broth microdilution method
[4] = tested on: Streptococcus pneumoniae; assay: Antibacterial activity against erythromycin-resistant Streptococcus pneumoniae isolate-1 with gyrA Glu85Lys, ParC Ser79Phe and parE Ile460Val mutation by broth microdilution method
[5] = tested on: Streptococcus pneumoniae; assay: Antibacterial activity against erythromycin-resistant Streptococcus pneumoniae isolate-2 with gyrA Ser81Phe, Ser114Gly, ParC Ser52Gly, Ser79Phe, Asn91Asp and parE Ile460Val mutation by broth microdilution method
[6] = tested on: Streptococcus pneumoniae; assay: Antibacterial activity against erythromycin-resistant Streptococcus pneumoniae isolate-3 with ParC Ser79Tyr and parE Ile460Val mutation by broth microdilution method
[7] = tested on: Streptococcus pneumoniae; assay: Antibacterial activity against erythromycin-resistant Streptococcus pneumoniae isolate-4 with gyrA Ser81Phe, ParC Lys137Asn and parE Ile460Val, Asp435Asn mutation by broth microdilution method
[8] = tested on: Streptococcus pneumoniae; assay: Antibacterial activity against erythromycin-resistant Streptococcus pneumoniae isolate-5 with ParC Ser79Tyr, Lys137Asn and parE Ile460Val mutation by broth microdilution method
[9] = tested on: Streptococcus pneumoniae; assay: Antibacterial activity against erythromycin-resistant Streptococcus pneumoniae isolate-6 with parE Ile460Val mutation by broth microdilution method
[10] = tested on: Streptococcus pneumoniae; assay: Antibacterial activity against erythromycin-resistant Streptococcus pneumoniae isolate-7 with parE Ile460Val mutation by broth microdilution method
[11] = tested on: Streptococcus pneumoniae; assay: Antibacterial activity against erythromycin-resistant Streptococcus pneumoniae isolate-8 with parE Ile460Val mutation by broth microdilution method
[12] = tested on: Streptococcus pneumoniae; assay: Antibacterial activity against erythromycin-resistant Streptococcus pneumoniae isolate-9 with parC Asn94ser and parE Ile460Val mutation by broth microdilution method

Compound	MIC50 [1]	MIC90 [1]	Percent susceptible isolates [2]	Activity [3]	MIC [4]	MIC [5]	MIC [6]	MIC [7]	MIC [8]	MIC [9]	MIC [10]	MIC [11]	MIC [12]
CO/N=C(\C(=O)N[C@@H]1C(=O)N2C(C(=O)O)=C(COC(C)=O)CS[C@H]12)c1csc(N)n1 [CEFOTAXIME]	1 µg/mL (≈ 2.2 µM)	2 µg/mL (≈ 4.39 µM)	78.7%	3.4%	–	–	–	–	–	–	–	–	–
CN(C)[C@@H]1C(O)=C(C(N)=O)C(=O)[C@@]2(O)C(O)=C3C(=O)c4c(O)cccc4[C@@](C)(O)[C@H]3C[C@@H]12 [TETRACYCLINE]	32 µg/mL (≈ 72 µM)	64 µg/mL (≈ 144 µM)	18.3%	81.3%	–	–	–	–	–	–	–	–	–
COc1c(N2C[C@@H]3CCCN[C@@H]3C2)c(F)cc2c(=O)c(C(=O)O)cn(C3CC3)c12 [MOXIFLOXACIN]	–	–	97.9%	1.7%	–	–	–	–	–	–	–	–	–
CO/N=C(\C(=O)N[C@@H]1C(=O)N2C(C(=O)O)=C(CSc3nc(=O)c(O)nn3C)CS[C@H]12)c1csc(N)n1 [CEFTRIAXONE]	1 µg/mL (≈ 1.8 µM)	2 µg/mL (≈ 3.61 µM)	76.2%	3.4%	–	–	–	–	–	–	–	–	–
CC(=O)NC[C@H]1CN(c2ccc(N3CCOCC3)c(F)c2)C(=O)O1 [LINEZOLID]	0.5 µg/mL (≈ 1.48 µM)	1 µg/mL (≈ 2.96 µM)	100%	0%	–	–	–	–	–	–	–	–	–
CN[C@H](CC(C)C)C(=O)N[C@H]1C(=O)N[C@@H](CC(N)=O)C(=O)N[C@H]2C(=O)N[C@H]3C(=O)N[C@H](C(=O)N[C@H](C(=O)O)c4cc(O)cc(O)c4-c4cc3ccc4O)[C@H](O)c3ccc(c(Cl)c3)Oc3cc2cc(c3O[C@@H]2O[C@H](CO)[C@@H](O)[C@H](O)[C@H]2O[C@H]2C[C@](C)(N)[C@H](O)[C@H](C)O2)Oc2ccc(cc2Cl)[C@H]1O [VANCOMYCIN]	0.25 µg/mL (≈ 0.173 µM)	0.25 µg/mL (≈ 0.173 µM)	100%	0%	–	–	–	–	–	–	–	–	–
CC[C@H]1OC(=O)[C@H](C)[C@@H](O[C@H]2C[C@@](C)(OC)[C@@H](O)[C@H](C)O2)[C@H](C)[C@@H](O[C@@H]2O[C@H](C)C[C@H](N(C)C)[C@H]2O)[C@](C)(O)C[C@@H](C)C(=O)[C@H](C)[C@@H](O)[C@]1(C)O [ERYTHROMYCIN]	4 µg/mL (≈ 5.45 µM)	≥ 128 µg/mL	20%	80%	–	–	–	–	–	–	–	–	–
C[C@H]1COc2c(N3CCN(C)CC3)c(F)cc3c(=O)c(C(=O)O)cn1c23.C[C@H]1COc2c(N3CCN(C)CC3)c(F)cc3c(=O)c(C(=O)O)cn1c23.O [LEVOFLOXACIN]	1 µg/mL	2 µg/mL	96.2%	3%	0.032 µg/mL	0.008 µg/mL	0.064 µg/mL	0.008 µg/mL	0.004 µg/mL	0.008 µg/mL	0.064 µg/mL	0.064 µg/mL	0.004 µg/mL
CC[C@H]1OC(=O)[C@H](C)[C@@H](O[C@H]2C[C@@](C)(OC)[C@@H](O)[C@H](C)O2)[C@H](C)[C@@H](O[C@@H]2O[C@H](C)C[C@H](N(C)C)[C@H]2O)[C@](C)(OC)C[C@@H](C)C(=O)[C@H](C)[C@@H](O)[C@]1(C)O [CLARITHROMYCIN]	64 µg/mL (≈ 85.6 µM)	≥ 128 µg/mL	23.4%	72.8%	–	–	–	–	–	–	–	–	–
CC1(C)S[C@@H]2[C@H](NC(=O)[C@H](N)c3ccc(O)cc3)C(=O)N2[C@H]1C(=O)O [AMOXICILLIN]	4 µg/mL (≈ 10.9 µM)	16 µg/mL (≈ 43.8 µM)	40.9%	33.2%	–	–	–	–	–	–	–	–	–
